Experimental data: paper PMC8588467, “Rational Design 2-Hydroxypropylphosphonium Salts as Cancer Cell Mitochondria-Targeted Vectors: Synthesis, Structure, and Biological Properties” (Molecules, 2021)
Read-outs that look alike come from different tables or passages of the source.

Columns and labels:
[1] = tested on: HuTu 80 (human duodenal adenocarcinoma); assay: MTT cytotoxicity, HuTu 80; assay type: cell-based; details: for IC50: mean ± SD, triplicate; for SI HuTu 80: IC50 normal cells (WI38) / IC50 cancer cells, ns = no selectivity; for anti-cancer activity against the HuTu 80 cell line relative to doxorubicin: words
[2] = tested on: M-HeLa (human cervix epitheloid carcinoma); assay: MTT cytotoxicity, M-HeLa; assay type: cell-based; details: for IC50: MTT, mean ± SD, triplicate; for SI M-HeLa: IC50 normal cells (WI38) / IC50 cancer cells, ns = no selectivity
[3] = tested on: MCF-7 (human breast adenocarcinoma); assay: MTT cytotoxicity, MCF-7; assay type: cell-based; details: for IC50: mean ± SD, triplicate; for SI MCF-7: IC50 normal cells (WI38) / IC50 cancer cells, ns = no selectivity
[4] = tested on: A549 (human lung carcinoma); assay: MTT cytotoxicity, A549; assay type: cell-based; details: for IC50: mean ± SD, triplicate; for SI A549: IC50 normal cells (WI38) / IC50 cancer cells, ns = no selectivity
[5] = tested on: T98G glioblastoma cell line; assay: MTT cytotoxicity, T98G; assay type: cell-based, human; details: for IC50: MTT, mean ± SD, triplicate; for SI T98G: IC50 normal cells (WI38) / IC50 cancer cells, ns = no selectivity
[6] = tested on: WI38 (diploid human embryo lung); assay: MTT cytotoxicity, normal cells WI38; assay type: cell-based; details: mean ± SD, triplicate, read-out: WI38 IC50 (normal cell line)
HuTu-80 cells [7] = assay: Induction of apoptosis, annexin V/propidium iodide flow cytometry; assay type: cell-based, human; details: IC50/2, 48-h incubation
Procedure: Apoptosis is one of the most significant mechanisms used for screening new anti-cancer agents. The apoptosis-inducing effect was carried out on lead compounds 3a, b, k, j and 4c showing high selectivity against HuTu-80 cells. The studies were carried out by flow cytometry at concentrations IC50/2 and IC50 (Figure 4). […] The percentage of apoptotic cells in early and late phases was slightly changed with increase compound concentration up to IC50.
HuTu 80 cells at 1 × 10^6 cells/well in a final volume of 2 mL were seeded into six-well plates. After 48 h of incubation, various concentrations of compounds 3a,b and 3k were added to wells.
The cells were harvested at 2000 rpm for 5 min and, then, washed twice with ice-cold PBS, followed by resuspension in binding buffer. Next, the samples were incubated with 5 μL of annexin V-Alexa Fluor 647 (Sigma–Aldrich, St. Louis, MO, USA) and 5 μL of propidium iodide for 15 min at room temperature in the dark. Finally, the cells were analyzed by flow cytometry (Guava easy Cyte, MERCK, Rahway, NJ, USA) within 1 h. The experiments were repeated three times.

HuTu-80 cells [8] = assay: Mitochondrial membrane potential, JC-10 flow cytometry; assay type: cell-based, human; details: for % cells with J-aggregate (red, high membrane potential) / % cells with J-monomer (green, decreased membrane potential): JC-10; for effect on mitochondrial membrane potential: more pronounced with increase of concentration up to IC50
From the text: Apoptosis induction by 3a, b, k, j and 4c through the mitochondrial pathway and HuTu-80 cell line was studied by flow cytometry using the fluorescent dye JC-10 from the Mitochondria Membrane Potential Kit. JC-10 accumulated in the mitochondrial matrix and formed aggregates (J-aggregate) with red fluorescence in normal cells with a high mitochondrial membrane potential. The membrane potential decreased in apoptotic cells. JC-10 started to diffuse out from the mitochondria and converts to the monomeric form (J-monomer) and emits green fluorescence. This is recorded with a flow cytometer. […] The process became more pronounced with an increase of 3a, b, 3k, j and 4c concentrations up to IC50 (Figure 5 and Figure 6).
Cells were harvested at 2000 rpm for 5 min and then washed twice with ice-cold PBS, followed by resuspension in JC-10 (10 µg/mL) and incubation at 37 °C for 10 min. After the cells were rinsed three times and suspended in PBS, the JC-10 fluorescence was observed by flow cytometry (Guava easy Cyte, MERCK, NJ, USA).

HuTu-80 cells [9] = assay: Intracellular ROS production, CellROX Deep Red flow cytometry; assay type: cell-based, human; details: for CellROX Deep Red fluorescence intensity (ROS production): control 600; for ROS generation: compared to 3a and 3b and control (untreated cells)
From the text: Increasing the production of reactive oxygen species (ROS) by compounds characterizes the mitochondrial apoptotic pathway. Mitochondria are a potential source and target of ROS. ROS lead to disruption of mitochondrial functions and, as a consequence, to irreversible cell damage. In this regard, the effect of test compounds in HuTu-80 cells on ROS production, using flow cytometry analysis and CellROX® Deep Red flow cytometry kit was investigated. Data presented in Figure 7 show a significant increase in CellROX® Deep Red fluorescence intensity. This indicates an increase in ROS production in the presence of the tested compounds.
ROS generation was investigated using flow cytometry assay and CellROX® Deep Red flow cytometry kit. For this HuTu 80 cells were harvested at 2000 rpm for 5 min and then washed twice with ice-cold PBS, followed by resuspension in 0.1 mL of medium without FBS, to which was added 0.2 μL of Cell ROX® Deep Red and incubated at 37 °C for 30 min After three times washing the cells and suspending them in PBS, the production of ROS in the cells was immediately monitored using flow cytometer Guava easy Cyte, MERCK, NJ, USA).

human cancer cell lines = assay: MTT cytotoxicity, summary statements over several cell lines; assay type: cell-based; details: for IC50: Homo sapiens, HuTu80, lines other than HuTu 80 and PC3, read-out: IC50 concentration values against other human cancer lines
[10] = tested on: PC3 (human prostate adenocarcinoma); assay: MTT cytotoxicity, PC3; details: for IC50: mean ± SD, triplicate; for SI PC3: IC50 normal cells (WI38) / IC50 cancer cells, ns = no selectivity; for cytotoxic effect against the PC3 line relative to doxorubicin: words
[11] = In vitro rhodamine B release, dialysis bag diffusion method; assay type: physicochemical; details: aqueous solution without nanoparticles; phosphate buffer 0.025 M, pH 7.4, 37 °C
Procedure: The monitoring of rhodamine B release from liposomes was performed using the dialysis bag diffusion method. Dialysis bags retain liposomes and allow the released rhodamine B to diffuse into the medium. The bags were soaked in Milli-Q water for 12 h before use. Then, 0.4 mL of liposomes were poured into the dialysis bag. The two bag ends were sealed with clamps. The bags were then placed in a vessel containing 100 mL of 0.025 M sodium phosphate buffer pH 7.4, the receiving phase. The vessel was placed in a thermostatic shaker (New Brunswick, NJ, USA) at 37 °C, under a stirring rate of 150 rpm. At predetermined time intervals, 0.5 mL of samples were withdrawn, and their absorbance at 554 nm was measured using Perkin Elmer λ35 (Perkin Elmer Instruments, Norwalk, CT, USA). All samples were analyzed in triplicate. The extinction coefficient of rhodamine B is 106,089 M^−1 cm^−1 at pH = 7.4.

[12] = Homo sapiens, read-out: IC50 PC3, MTT

SMILES | IC50 ([1]; Homo sapiens, HuTu80, MTT) [nM] | SI HuTu 80 [1] | IC50 ([2]; Homo sapiens, M-HeLa) [nM] | SI M-HeLa [2] | IC50 ([3]; Homo sapiens, MCF7, MTT) [nM] | SI MCF-7 [3] | IC50 ([4]; Homo sapiens, A549, MTT) [µM] | SI A549 [4] | IC50 ([5]; Homo sapiens, T98G) [nM] | SI T98G [5] | IC50 ([6]; Homo sapiens, WI-38, MTT) [µM] | apoptosis induction (HuTu-80 cells [7]) | % cells with J-aggregate (red, high membrane potential) (HuTu-80 cells [8]; IC50, 48 h) [%] | % cells with J-monomer (green, decreased membrane potential) (HuTu-80 cells [8]; IC50, 48 h) [%] | % cells with J-aggregate (red, high membrane potential) (HuTu-80 cells [8]; IC50/2, 48 h) [%] | % cells with J-monomer (green, decreased membrane potential) (HuTu-80 cells [8]; IC50/2, 48 h) [%] | effect on mitochondrial membrane potential (HuTu-80 cells [8]) | CellROX Deep Red fluorescence intensity (ROS production) (HuTu-80 cells [9]; IC50, 48 h) | CellROX Deep Red fluorescence intensity (ROS production) (HuTu-80 cells [9]; IC50/2, 48 h) | SI PC3 [10] | other results
CCCCCCCCCCOCC(O)C[P+](c1ccccc1)(c1ccccc1)c1ccccc1 (stereo not drawn) [3j, (3-(Decyloxy)-2-hydroxypropyl)triphenylphosphonium trifluoromethanesulfonate] | 500 ± 30 | 6.2 | 1100 ± 90 | 3 | 2900 ± 200 | 1.1 | 3.7 ± 0.3 | ns | 1700 ± 100 | 2 | 3.1 ± 0.2 | actively induce apoptosis | 50.1 | 48.2 | 89.6 | 10.4 | decrease the mitochondrial membrane potential | 3700 | 2500 | 5.2 | anti-cancer activity against the HuTu 80 cell line relative to doxorubicin [1]: comparable to doxorubicin activity; ROS generation (HuTu-80 cells [9]): most active to generate ROS; IC50 (human cancer cell lines): 1100 to 3700 nM; IC50 [10, 12]: 600 ± 50 nM; cytotoxic effect against the PC3 line relative to doxorubicin [10]: two times higher than doxorubicin
CCCCCCCCCCCCCCCC(=O)OCC(O)C[P+](c1ccccc1)(c1ccccc1)c1ccccc1 (stereo not drawn) [3k, (2-Hydroxy-3-palmitoyloxy-propyl)triphenylphosphonium trifluoromethanesulfonate] | 3500 ± 300 | 5 | 40300 ± 3500 | ns | 30500 ± 2500 | ns | 54.7 ± 4.4 | ns | 55800 ± 4700 | ns | 16.2 ± 1.3 | actively induce apoptosis | 26.2 | 73.8 | 35 | 65 | decrease the mitochondrial membrane potential | 3800 | 2000 | ns | ROS generation (HuTu-80 cells [9]): most active to generate ROS; IC50 [10, 12]: 25000 ± 2000 nM
C=CCOCC(O)C[P+](c1ccccc1)(c1ccccc1)c1ccccc1.[I-] (stereo not drawn) [4c, (3-(Allyloxy)-2-hydroxypropyl)triphenylphosphonium iodide] |  | 12.3 |  | 3.4 |  | 1.4 |  | 1.4 |  | 1.8 |  | actively induce apoptosis | 51.1 | 46.9 | 88.5 | 11.3 | decrease the mitochondrial membrane potential | 4300 | 3200 | 5.3 | IC50 ([1]; MTT): 300 ± 20 nM; anti-cancer activity against the HuTu 80 cell line relative to doxorubicin [1]: comparable to doxorubicin activity; IC50 [2]: 1100 ± 90 nM; IC50 ([3]; MTT): 2700 ± 200 nM; IC50 ([4]; MTT): 2.6 ± 0.2 µM; IC50 [5]: 2000 ± 100 nM; IC50 ([6]; MTT): 3.7 ± 0.3 µM; ROS generation (HuTu-80 cells [9]): most active to generate ROS; IC50 (human cancer cell lines): 1100 to 3700 nM; IC50 ([10]; read-out: IC50 PC3, MTT): 700 ± 60 nM; cytotoxic effect against the PC3 line relative to doxorubicin [10]: two times higher than doxorubicin
COc1cccc2c1C(=O)c1c(O)c3c(c(O)c1C2=O)C[C@@](O)(C(=O)CO)C[C@@H]3O[C@H]1C[C@H](N)[C@H](O)[C@H](C)O1 [Dox, doxorubicin, reference compound] | 200 ± 10 | 4 | 2100 ± 100 | ns | 400 ± 30 | 2 | 0.7 ± 0.5 | 1.1 | 2000 ± 100 | ns | 0.8 ± 0.07 |  |  |  |  |  |  |  |  | ns | selectivity relative to the leading compounds (human cancer cell lines): significantly inferior to the leading compounds in selectivity; IC50 [10, 12]: 1400 ± 100 nM
CCN(CC)c1ccc2c(-c3ccccc3C(=O)O)c3ccc(=[N+](CC)CC)cc-3oc2c1 [Rhodamine B] |  |  |  |  |  |  |  |  |  |  |  |  |  |  |  |  |  |  |  |  | time of release of 50% Rhodamine B [11]: ≤ 20 min
